Test results published in US20130071897A1, “METHOD FOR CONTROLLING UNDESIRABLE BYPRODUCTS FORMATION CAUSED BY CONTAMINATING ORGANISMS IN THE PRODUCTION OF ETHANOL FROM SYNGAS” (COSKATA, INC., priority 2011, published 2013).

Experiments:
[1] = tested on: Clostridium tyrobutyricum; assay: Balch tube batch growth of strict butyrogen Clostridium tyrobutyricum on fructose, optical density; type: cell-based; conditions: added 21 h after inoculation
Method: Similar experiments were conducted to make a preliminary determination as to which of the crotonate and crotonate-like compounds would act as butyrogen retardants. For this purpose the selected compounds were tested again in a series of batch experiments to determine the growth response of butyrogens to the presence of the compound at varying concentrations. The batch experiments were all conducted by anoxically filling a 20 ml Balch tube with 5 ml of a fermentation medium having the composition given in Tables 2 and 3. The media included 0.5 v/v final concentration of a fructose substrate. For each of the crotonate concentrations tested, duplicate test tubes were prepared.
Each tube was inoculated with 0.5 ml seed culture inoculum of the strict butyrogen Clostridium tyrobutyricum. The tubes were maintained at a temperature of 37° C. Twenty one hours after the inoculation of the tube with the bacteria, the different compounds from Table 1 were added to different tubes in the amounts indicated in Table 6. This was at a time of early to mid-log phase growth for the bacteria. Each fermentation of the bacteria in the media at the different concentration of crotonate derivatives were allowed to progress and were monitored to determine the bacteria growth at selected intervals of time varying from approximately 20 hours to 54 hours. Growth at the intervals was measured by reading the optical density (OD) of the fermentation liquid. Optical density was measured as described in Example 1. The ability of a tube fermentation at a particular concentration of crotonate derivative to reach a predetermined optical density was recorded in Table 6. Table 6 indicates the presence of bacterial growth to an OD of approximately 1.8 or above with a “+”, and to an optical density in a range of 0.7 to 1.5 as a “+/−”, and indicates the failure of bacterial growth to reach an optical density of approximately 0.7 as a “−”.

[2] = tested on: C. autoethanogenum; assay: Balch tube batch growth of homoacetogen C. autoethanogenum on fructose, optical density; type: cell-based; conditions: added 21 h after inoculation
Method: These compounds were first tested to determine their effect on a known homoacetogen. Each compound was tested in a series of batch experiments to determine the growth response of a homoacetogen to the presence of the compound at varying concentrations. The batch experiments were all conducted by anoxically filling a Balch tube with 5 ml of a fermentation medium having the composition given in Tables 2 and 3. To expedite results, these batch experiments used fructose as the growth nutrient source for bacteria. Thus, the media included a 5 g/L of fructose.
Each tube was inoculated with 0.5 ml of the same strain of C. autoethanogenum bacteria seed culture inoculum. The tubes were maintained at a temperature of 37° C. Twenty one hours after the inoculation of the tube with the bacteria, the different crotonate derivatives from Table 1 were added to different tubes in the amounts indicated in Table 4 This was at a time of early to mid-log phase growth for the bacteria. Each fermentation of the bacteria in the media at the different concentration of crotonate derivatives were allowed to progress and were monitored to determine the bacteria growth at selected intervals of time varying from approximately 20 hours to 190 hours. Growth at the intervals was measured by reading the optical density (OD) of the fermentation liquid. Optical density was measured using a Spectronic Spec 20 (Thermo Spectronic) at a wavelength of 600 nm. The OD of the Balch tube culture was measured directly in the tube using absorbance mode on the Spec 20 machine. The machine was set to zero absorbance by first measuring and adjusting the setting to zero absorbance using media only as a blank. This process was repeated at each indicated time point throughout the experiment. The ability of a tube fermentation at a particular concentration of crotonate derivative to reach a predetermined optical density was recorded in Table 4. Table 4 indicates the presence of bacterial growth to an OD of approximately 2 or above with a “+”, and to an optical density in a range of 0.5 to 1.5 as a “+/−”, and indicates the failure of bacterial growth to reach an optical density of approximately 0.5 as a “−”.

[3] = tested on: acyl-CoA dehydrogenases; assay: In vitro acyl-CoA dehydrogenase ferrocenium assay with C. tyrobutyricum cell-free extract; type: biochemical; conditions: 0.5 to 10 mM compound; rate of ferrocenium reduction at 300 nm
Method: Lehman, et al., in An Acyl-Coenzyme A Dehydrogenase Assay Utilizing the Ferricenium Ion, Analytical Biochemistry 186, pages 280-284 (1990), disclose an in vitro assay screening technique for acyl-CoA dehydrogenases for determining enzyme deficiencies in children. An adaptation of this technique was explored as a potential screening method for ascertaining potential butyrogen inhibitors. An aqueous assay liquor is prepared such that each 1 milliliter sample contains 50 mM of TrisHCl buffer (pH 7.6); 0.05 mM of butyryl-CoA; 5 micromoles of FAD (flavin adenine dinucleotide) and 0.4 mM of ferrocenium. Whole cells of C. tyrobutyricum are lysed and are added to the assay liquor. […] The abbreviation mM stands for millimolar. To assure metabolic consistency among the samples a master batch of C. tyrobutyricum is prepared and harvested at the early log growth stage (approximate O.D. of between about 0.5 and 0.7). The master batch fermentation broth is centrifuged and rinsed with 50 mM TrisHCl buffer (pH 7.6), centrifuged and reconstituted with 50 mM TrisHCl buffer (pH 7.6) to be 10 times more concentrated than the original master batch. Aliquots of about 0.5 milliliter are placed into cryogenic vials (about 1.8 milliliter capacity) and frozen at −80° C. until needed. When needed, a vial is placed in an anoxic Coy chamber and allowed to thaw to room temperature. Once thawed, the cells are added to a 15 mL centrifuge tube and diluted with 0.5 mL of a 2 mg/mL solution of lysozyme (purchased from Aldrich) in 50 mM Tris-HCl (final concentration of lysozyme is about 1 mg/mL). The centrifuge tube is inverted 5 times, removed from the Coy chamber and allowed to incubate at 37° C. for 30 minutes. […] The centrifuge tube is vortexed in the Coy chamber for about 30 seconds, removed from the chamber and centrifuged for 15 minutes at 4000 rpm and 4° C. The tube is returned to the chamber and the cell-free extract (supernatant) is used to prepare the above described samples. The samples are analyzed at various times by absorbance spectroscopy at 300 nm using a Thermo Scientific Evolution 300 UV/Vis spectrophotometer with a 7-cuvette carousel and Starna quartz cuvettes with a septum cap to determine the amount of reduction of ferrocenium. The sample is at laboratory temperature and is maintained under anaerobic conditions. Typically, the absorbance is measured over a period of about 10 to 20 minutes which is sufficient time for the absorbance to stop changing. A linear slope of the rate of change in absorbance during the period that the absorbance is changing is determined using Microsoft Excel® 2010 linear regression to generate a straight line from the data points. The more gradual the slope, the better inhibition because the enzyme is slower at reducing the ferrocenium in the assay sample. A dose-response curve is then determined for each compound by plotting the linear slope against the respective compound concentration. A linear slope is then determined for each compound using Microsoft Excel® 2010 linear regression to generate a straight line from the data points. The steeper the dose-response slope, the better the inhibition because the increased concentration of the compound causes more of a difference in enzyme activity. The dose-response slope generally has a broad standard of deviation due to experimental imprecision and slope determinations.

SMILES	Optical density valuation of C. tyrobutyricum ([1]; 100 ppm(m))	Optical density valuation of C. tyrobutyricum ([1]; 500 ppm(m))	Optical density valuation of C. tyrobutyricum ([1]; 1000 ppm(m))	Optical density valuation of C. autoethanogenum ([2]; 10 ppm(m))	Optical density valuation of C. autoethanogenum ([2]; 100 ppm(m))	Optical density valuation of C. autoethanogenum ([2]; 500 ppm(m))	Optical density valuation of C. autoethanogenum ([2]; 1000 ppm(m))	Optical density valuation of C. autoethanogenum ([2]; 5000 ppm(m))	Optical density valuation of C. autoethanogenum ([2]; 10000 ppm(m))	Dose-Response Slope [3]
C/C=C/C(=O)OC(C)(C)C [C, Tert-butyl crotonate, reference compound]	+ (bacterial growth to an OD of approximately 1.8 or above)	+ (bacterial growth to an OD of approximately 1.8 or above)	+ (bacterial growth to an OD of approximately 1.8 or above)	+ (bacterial growth to an OD of approximately 2 or above)	+ (bacterial growth to an OD of approximately 2 or above)	+ (bacterial growth to an OD of approximately 2 or above)	+ (bacterial growth to an OD of approximately 2 or above)	+ (bacterial growth to an OD of approximately 2 or above)	− (failure of bacterial growth to reach an optical density of approximately 0.5)	6
CCOC(=O)/C=C/C(F)(F)F [E, ethyl 4,4,4-trifluorocrotonate]	+ (bacterial growth to an OD of approximately 1.8 or above)	+ (bacterial growth to an OD of approximately 1.8 or above)	+ (bacterial growth to an OD of approximately 1.8 or above)	+ (bacterial growth to an OD of approximately 2 or above)	+ (bacterial growth to an OD of approximately 2 or above)	+ (bacterial growth to an OD of approximately 2 or above)	+ (bacterial growth to an OD of approximately 2 or above)	− (failure of bacterial growth to reach an optical density of approximately 0.5)	− (failure of bacterial growth to reach an optical density of approximately 0.5)	6
CCOC(=O)/C(C)=C/C(F)(F)F [F, ethyl-2-methyl-4,4,4-trifluorocrotonate, reference compound]	+ (bacterial growth to an OD of approximately 1.8 or above)	+ (bacterial growth to an OD of approximately 1.8 or above)	+ (bacterial growth to an OD of approximately 1.8 or above)	+ (bacterial growth to an OD of approximately 2 or above)	+ (bacterial growth to an OD of approximately 2 or above)	+ (bacterial growth to an OD of approximately 2 or above)	+ (bacterial growth to an OD of approximately 2 or above)	+/− (to an optical density in a range of 0.5 to 1.5)	− (failure of bacterial growth to reach an optical density of approximately 0.5)	2
